Assay results from patent publication US20220281848A1, “PYRAZOLE-SUBSTITUTED PYRROLIDINONES AS HERBICIDES” (FMC Corporation, priority 2019, published 2022).

Key:
plants = assay: Test D post-emergence, other plants of Tables D2 and D4; assay type: in vivo; conditions: for damage to plant (100=total damage to plant; 0=no damage to plant), ABUTH / damage to plant (100=total damage to plant; 0=no damage to plant), AMARE / damage to plant (100=total damage to plant; 0=no damage to plant), BIDPI / damage to plant (100=total damage to plant; 0=no damage to plant), BRAPL / damage to plant (100=total damage to plant; 0=no damage to plant), CYPES / damage to plant (100=total damage to plant; 0=no damage to plant), DIGSA / damage to plant (100=total damage to plant; 0=no damage to plant), ECHCG / damage to plant (100=total damage to plant; 0=no damage to plant), ELEIN / damage to plant (100=total damage to plant; 0=no damage to plant), EPHHL / damage to plant (100=total damage to plant; 0=no damage to plant), GLXMA / damage to plant (100=total damage to plant; 0=no damage to plant), IPOHE / damage to plant (100=total damage to plant; 0=no damage to plant), ORYSA / damage to plant (100=total damage to plant; 0=no damage to plant), PANMI / damage to plant (100=total damage to plant; 0=no damage to plant), SETFA / damage to plant (100=total damage to plant; 0=no damage to plant), SORVU: post-emergence
Procedure, shortened: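 Damage was rated visually from 0 (none) to 100 (total), at 20 DAA for pre-emergence and 15 d for post-emergence. Plants grew from safener-treated seed in a glasshouse at 24/18° C. or 20/16° C. day/night, 65% humidity, watered twice daily.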

wheat = assay: Test D post-emergence, wheat seed treated with a herbicide safener; assay type: in vivo; conditions: "Cereals" Postemergent
Procedure, shortened: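 Seeds treated with herbicide safener; sown in soil; glasshouse, 16 h light, 65% humidity. Sprayed day 1 (pre) or ~day 12 (post). Spray in 0.2% v/v adjuvant. Scored 0–100 damage: 20 DAA pre, 15 d post.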

[1] = "Cereals" Postemergent, Rates 130, evaluated after 15 d
[2] = "Cereals" Postemergent, Rates 250, evaluated after 15 d
[3] = "Cereals" Postemergent, Rates 500, evaluated after 15 d

Compound: CN1CC(c2cc(C(F)(F)F)n(C)n2)C(C(=O)Nc2ccc(F)cc2F)C1=O (racemic) [Compound 6]
- ALOMY damage rating (100=total damage to plant; 0=no damage to plant) (plants; [1]): 0
- ALOMY damage rating (100=total damage to plant; 0=no damage to plant) (plants; [2]): 0
- ALOMY damage rating (100=total damage to plant; 0=no damage to plant) (plants; [3]): 0
- AVEFA damage rating (100=total damage to plant; 0=no damage to plant) (plants; [1]): 0
- AVEFA damage rating (100=total damage to plant; 0=no damage to plant) (plants; [2]): 0
- AVEFA damage rating (100=total damage to plant; 0=no damage to plant) (plants; [3]): 10
- BEAVA damage rating (100=total damage to plant; 0=no damage to plant) (plants; [1]): 0
- BEAVA damage rating (100=total damage to plant; 0=no damage to plant) (plants; [2]): 0
- BEAVA damage rating (100=total damage to plant; 0=no damage to plant) (plants; [3]): 0
- BROTE damage rating (100=total damage to plant; 0=no damage to plant) (plants; [1]): 0
- BROTE damage rating (100=total damage to plant; 0=no damage to plant) (plants; [2]): 0
- BROTE damage rating (100=total damage to plant; 0=no damage to plant) (plants; [3]): 10
- BRSNN damage rating (100=total damage to plant; 0=no damage to plant) (plants; [1]): 0
- BRSNN damage rating (100=total damage to plant; 0=no damage to plant) (plants; [2]): 0
- BRSNN damage rating (100=total damage to plant; 0=no damage to plant) (plants; [3]): 10
- CHEAL damage rating (100=total damage to plant; 0=no damage to plant) (plants; [1]): 0
- CHEAL damage rating (100=total damage to plant; 0=no damage to plant) (plants; [2]): 0
- CHEAL damage rating (100=total damage to plant; 0=no damage to plant) (plants; [3]): 0
- GALAP damage rating (100=total damage to plant; 0=no damage to plant) (plants; [1]): 0
- GALAP damage rating (100=total damage to plant; 0=no damage to plant) (plants; [2]): 10
- GALAP damage rating (100=total damage to plant; 0=no damage to plant) (plants; [3]): 20
- HORVW damage rating (100=total damage to plant; 0=no damage to plant) (plants; [1]): 0
- HORVW damage rating (100=total damage to plant; 0=no damage to plant) (plants; [2]): 10
- HORVW damage rating (100=total damage to plant; 0=no damage to plant) (plants; [3]): 30
- KCHSC damage rating (100=total damage to plant; 0=no damage to plant) (plants; [1]): 0
- KCHSC damage rating (100=total damage to plant; 0=no damage to plant) (plants; [2]): 0
- KCHSC damage rating (100=total damage to plant; 0=no damage to plant) (plants; [3]): 10
- LOLPE damage rating (100=total damage to plant; 0=no damage to plant) (plants; [1]): 0
- LOLPE damage rating (100=total damage to plant; 0=no damage to plant) (plants; [2]): 0
- LOLPE damage rating (100=total damage to plant; 0=no damage to plant) (plants; [3]): 0
- POAAN damage rating (100=total damage to plant; 0=no damage to plant) (plants; [1]): 0
- POAAN damage rating (100=total damage to plant; 0=no damage to plant) (plants; [2]): 0
- POAAN damage rating (100=total damage to plant; 0=no damage to plant) (plants; [3]): 10
- POLCO damage rating (100=total damage to plant; 0=no damage to plant) (plants; [1]): 0
- POLCO damage rating (100=total damage to plant; 0=no damage to plant) (plants; [2]): 0
- POLCO damage rating (100=total damage to plant; 0=no damage to plant) (plants; [3]): 0
- SINAR damage rating (100=total damage to plant; 0=no damage to plant) (plants; SINAR, "Cereals" Postemergent, Rates 500, evaluated after 15 d): 40
- STEME damage rating (100=total damage to plant; 0=no damage to plant) (plants; [1]): 0
- STEME damage rating (100=total damage to plant; 0=no damage to plant) (plants; [2]): 0
- STEME damage rating (100=total damage to plant; 0=no damage to plant) (plants; [3]): 10
- VERPE damage rating (100=total damage to plant; 0=no damage to plant) (plants; [1]): 0
- VERPE damage rating (100=total damage to plant; 0=no damage to plant) (plants; [2]): 10
- VERPE damage rating (100=total damage to plant; 0=no damage to plant) (plants; [3]): 20
- damage to plant (100=total damage to plant; 0=no damage to plant), ABUTH (plants; rate 130, evaluated after 15 d): 0
- damage to plant (100=total damage to plant; 0=no damage to plant), ABUTH (plants; rate 250, evaluated after 15 d): 10
- damage to plant (100=total damage to plant; 0=no damage to plant), ABUTH (plants; rate 500, evaluated after 15 d): 20
- damage to plant (100=total damage to plant; 0=no damage to plant), AMARE (plants; rate 130, evaluated after 15 d): 0
- damage to plant (100=total damage to plant; 0=no damage to plant), AMARE (plants; rate 500, evaluated after 15 d): 20
- damage to plant (100=total damage to plant; 0=no damage to plant), BIDPI (plants; rate 130, evaluated after 15 d): 0
- damage to plant (100=total damage to plant; 0=no damage to plant), BIDPI (plants; rate 250, evaluated after 15 d): 0
- damage to plant (100=total damage to plant; 0=no damage to plant), BIDPI (plants; rate 500, evaluated after 15 d): 0
- damage to plant (100=total damage to plant; 0=no damage to plant), BRAPL (plants; rate 130, evaluated after 15 d): 50
- damage to plant (100=total damage to plant; 0=no damage to plant), BRAPL (plants; rate 250, evaluated after 15 d): 60
- damage to plant (100=total damage to plant; 0=no damage to plant), BRAPL (plants; rate 500, evaluated after 15 d): 70
- damage to plant (100=total damage to plant; 0=no damage to plant), CYPES (plants; rate 130, evaluated after 15 d): 0
- damage to plant (100=total damage to plant; 0=no damage to plant), CYPES (plants; rate 250, evaluated after 15 d): 0
- damage to plant (100=total damage to plant; 0=no damage to plant), CYPES (plants; rate 500, evaluated after 15 d): 0
- damage to plant (100=total damage to plant; 0=no damage to plant), DIGSA (plants; rate 130, evaluated after 15 d): 0
- damage to plant (100=total damage to plant; 0=no damage to plant), DIGSA (plants; rate 250, evaluated after 15 d): 60
- damage to plant (100=total damage to plant; 0=no damage to plant), DIGSA (plants; rate 500, evaluated after 15 d): 70
- damage to plant (100=total damage to plant; 0=no damage to plant), ECHCG (plants; rate 130, evaluated after 15 d): 0
- damage to plant (100=total damage to plant; 0=no damage to plant), ECHCG (plants; rate 250, evaluated after 15 d): 50
- damage to plant (100=total damage to plant; 0=no damage to plant), ECHCG (plants; rate 500, evaluated after 15 d): 70
- damage to plant (100=total damage to plant; 0=no damage to plant), ELEIN (plants; rate 130, evaluated after 15 d): 0
- damage to plant (100=total damage to plant; 0=no damage to plant), ELEIN (plants; rate 250, evaluated after 15 d): 0
- damage to plant (100=total damage to plant; 0=no damage to plant), ELEIN (plants; rate 500, evaluated after 15 d): 0
- damage to plant (100=total damage to plant; 0=no damage to plant), EPHHL (plants; rate 130, evaluated after 15 d): 10
- damage to plant (100=total damage to plant; 0=no damage to plant), EPHHL (plants; rate 250, evaluated after 15 d): 20
- damage to plant (100=total damage to plant; 0=no damage to plant), EPHHL (plants; rate 500, evaluated after 15 d): 30
- damage to plant (100=total damage to plant; 0=no damage to plant), GLXMA (plants; rate 130, evaluated after 15 d): 0
- damage to plant (100=total damage to plant; 0=no damage to plant), GLXMA (plants; rate 250, evaluated after 15 d): 0
- damage to plant (100=total damage to plant; 0=no damage to plant), GLXMA (plants; rate 500, evaluated after 15 d): 0
- damage to plant (100=total damage to plant; 0=no damage to plant), IPOHE (plants; rate 130, evaluated after 15 d): 0
- damage to plant (100=total damage to plant; 0=no damage to plant), IPOHE (plants; rate 250, evaluated after 15 d): 10
- damage to plant (100=total damage to plant; 0=no damage to plant), IPOHE (plants; rate 500, evaluated after 15 d): 20
- damage to plant (100=total damage to plant; 0=no damage to plant), ORYSA (plants; rate 130, evaluated after 15 d): 0
- damage to plant (100=total damage to plant; 0=no damage to plant), ORYSA (plants; rate 250, evaluated after 15 d): 0
- damage to plant (100=total damage to plant; 0=no damage to plant), ORYSA (plants; rate 500, evaluated after 15 d): 0
- damage to plant (100=total damage to plant; 0=no damage to plant), PANMI (plants; rate 130, evaluated after 15 d): 0
- damage to plant (100=total damage to plant; 0=no damage to plant), PANMI (plants; rate 250, evaluated after 15 d): 0
- damage to plant (100=total damage to plant; 0=no damage to plant), PANMI (plants; rate 500, evaluated after 15 d): 0
- damage to plant (100=total damage to plant; 0=no damage to plant), SETFA (plants; rate 130, evaluated after 15 d): 0
- damage to plant (100=total damage to plant; 0=no damage to plant), SETFA (plants; rate 250, evaluated after 15 d): 20
- damage to plant (100=total damage to plant; 0=no damage to plant), SETFA (plants; rate 500, evaluated after 15 d): 70
- damage to plant (100=total damage to plant; 0=no damage to plant), SORVU (plants; rate 130, evaluated after 15 d): 0
- damage to plant (100=total damage to plant; 0=no damage to plant), SORVU (plants; rate 250, evaluated after 15 d): 0
- damage to plant (100=total damage to plant; 0=no damage to plant), SORVU (plants; rate 500, evaluated after 15 d): 0
- TRZAW damage rating (100=total damage to plant; 0=no damage to plant) (wheat; Rates 130, evaluated after 15 d): 0
- TRZAW damage rating (100=total damage to plant; 0=no damage to plant) (wheat; Rates 250, evaluated after 15 d): 10
- TRZAW damage rating (100=total damage to plant; 0=no damage to plant) (wheat; Rates 500, evaluated after 15 d): 20
